Molecules are shown by their SMILES. pIC50: −log10 of the molar value.

The test system of this test is 293T-HRE-GFP-luc cells. Nature of the test: Cell-based reporter assay for IC50 determinations. The following applies: hypoxia 6 hrs (1% O2), luminescence, read-out: IC50 Classification. The method in brief:
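IC50 comes from a four-parameter logistic fit of luminescence from HRE-GFP-luc 293T cells. Compounds (1:3 series, 1:50 medium dilution) were preincubated 30 min under normoxia, followed by 6 h at 1% O2, 5% CO2, 37 °C, before Steadylite luciferase detection.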
A general note: Reporter assays use an easily measured gene product as a stand-in for the process of interest.
As to `Cc1cccc(Cn2nc(-c3nc(-c4ccc(OC(F)(F)F)cc4)no3)nc2C)c1` [Example 100, 5-(5-methyl-1-(3-methylbenzyl)-1H-1,2,4-triazol-3-yl)-3-(4-(trifluoromethoxy)phenyl)-1,2,4-oxadiazole], the pIC50 is 5.00 to 6.00.
With `COc1cccc(Cn2nc(-c3nc(-c4ccc(OC(F)(F)F)cc4)no3)nc2C)c1` [Example 101, 5-(1-(3-methoxybenzyl)-5-methyl-1H-1,2,4-triazol-3-yl)-3-(4-(trifluoromethoxy)phenyl)-1,2,4-oxadiazole] the figure was 6.00 to 7.00; with `Cc1nc(-c2nc(-c3ccc(OC(F)(F)F)cc3)no2)nn1Cc1cccc(C(F)(F)F)c1` [Example 102, 5-(5-methyl-1-(3-(trifluoromethyl)benzyl)-1H-1,2,4-triazol-3-yl)-3-(4-(trifluoromethoxy)phenyl)-1,2,4-oxadiazole], 5.00 to 6.00.
For `Cc1nc(-c2nc(-c3ccc(OC(F)(F)F)cc3)no2)nn1Cc1cccc(OC(F)F)c1` [Example 103, 5-(1-(3-(difluoromethoxy)benzyl)-5-methyl-1H-1,2,4-triazol-3-yl)-3-(4-(trifluoromethoxy)phenyl)-1,2,4-oxadiazole], the pIC50 was 6.00 to 7.00.
Consider `Cc1nc(-c2nc(-c3ccc(OC(F)(F)F)cc3)no2)nn1Cc1cccc(S(N)(=O)=O)c1` [Example 104, 3-((5-methyl-3-(3-(4-(trifluoromethoxy)phenyl)-1,2,4-oxadiazol-5-yl)-1H-1,2,4-triazol-1-yl)methyl)benzenesulfonamide], for which the pIC50 is 6.00 to 7.00.
In the case of `Cc1nc(-c2nc(-c3ccc(OC(F)(F)F)cc3)no2)nn1Cc1ccc(S(N)(=O)=O)cc1` [Example 105, 4-((5-methyl-3-(3-(4-(trifluoromethoxy)phenyl)-1,2,4-oxadiazol-5-yl)-1H-1,2,4-triazol-1-yl)methyl)benzenesulfonamide], the pIC50 is 6.00 to 7.00.
For `Cc1nc(-c2nc(-c3ccc(OC(F)(F)F)cc3)no2)nn1Cc1cccc(S(C)(=O)=O)c1` [Example 106, 5-(5-methyl-1-(3-(methylsulfonyl)benzyl)-1H-1,2,4-triazol-3-yl)-3-(4-(trifluoromethoxy)phenyl)-1,2,4-oxadiazole], the pIC50 was more than 7.00.
As for `Cc1nc(-c2nc(-c3ccc(OC(F)(F)F)cc3)no2)nn1Cc1cccc(C#N)c1` [Example 107, 3-((5-methyl-3-(3-(4-(trifluoromethoxy)phenyl)-1,2,4-oxadiazol-5-yl)-1H-1,2,4-triazol-1-yl)methyl)benzonitrile], the pIC50 is 6.00 to 7.00.
Consider `Cc1cccc(Cn2nc(-c3nc(-c4ccc(OC(F)(F)F)cc4)no3)nc2C)n1` [Example 108, 5-(5-methyl-1-((6-methylpyridin-2-yl)methyl)-1H-1,2,4-triazol-3-yl)-3-(4-(trifluoromethoxy)phenyl)-1,2,4-oxadiazole], for which the pIC50 is 5.00 to 6.00.
As for `Cc1nc(-c2nc(-c3ccc(OC(F)(F)F)cc3)no2)nn1Cc1ccc(C(C)C)cc1` [Example 109, 5-(1-(4-isopropylbenzyl)-5-methyl-1H-1,2,4-triazol-3-yl)-3-(4-(trifluoromethoxy)phenyl)-1,2,4-oxadiazole], the pIC50 was 6.00 to 7.00.
`Cc1nc(-c2nc(-c3ccc(OC(F)(F)F)cc3)no2)nn1Cc1cccc2c1cnn2C` [Example 110, 5-(5-methyl-1-((1-methyl-1H-indazol-4-yl)methyl)-1H-1,2,4-triazol-3-yl)-3-(4-(trifluoromethoxy)phenyl)-1,2,4-oxadiazole]: the pIC50 was 6.00 to 7.00.
On to `Cc1nc(-c2nc(-c3ccc(OC(F)(F)F)cc3)no2)nn1Cc1ccc2c(c1)OCO2` [Example 111, 5-(1-(benzo[d][1,3]dioxol-5-ylmethyl)-5-methyl-1H-1,2,4-triazol-3-yl)-3-(4-(trifluoromethoxy)phenyl)-1,2,4-oxadiazole], for which the pIC50 was 6.00 to 7.00.
Regarding `COc1ccc(Cn2nc(-c3nc(-c4ccc(OC(F)(F)F)cc4)no3)nc2C)cc1C(F)(F)F` [Example 112, 5-(1-(4-methoxy-3-(trifluoromethyl)benzyl)-5-methyl-1H-1,2,4-triazol-3-yl)-3-(4-(trifluoromethoxy)phenyl)-1,2,4-oxadiazole], the pIC50 was 5.00 to 6.00.
For `Cc1nc(-c2nc(-c3ccc(OC(F)(F)F)cc3)no2)nn1Cc1ccc2ccccc2n1` [Example 113, 5-(5-methyl-1-(quinolin-2-ylmethyl)-1H-1,2,4-triazol-3-yl)-3-(4-(trifluoromethoxy)phenyl)-1,2,4-oxadiazole], the pIC50 is more than 7.00.
`Cc1nc(-c2nc(-c3ccc(OC(F)(F)F)cc3)no2)nn1Cc1ccc2c(c1)nnn2C` [Example 114, 5-(5-methyl-1-((1-methyl-1H-benzo[d][1,2,3]triazol-5-yl)methyl)-1H-1,2,4-triazol-3-yl)-3-(4-(trifluoromethoxy)phenyl)-1,2,4-oxadiazole]: the negative-log IC50 (pIC50) is 6.00 to 7.00.
In the case of `COc1nccc(Cn2nc(-c3nc(-c4ccc(OC(F)(F)F)cc4)no3)nc2C)n1` [Example 115, 5-(1-((2-methoxypyrimidin-4-yl)methyl)-5-methyl-1H-1,2,4-triazol-3-yl)-3-(4-(trifluoromethoxy)phenyl)-1,2,4-oxadizole], the pIC50 is 5.00 to 6.00.
Take `Cc1nc(-c2noc(-c3ccc(C(C)(C)C)cc3)n2)nn1Cc1cccc(N2CCN(C)CC2)c1` [Example 116, 5-(4-(tert-butyl)phenyl)-3-(5-methyl-1-(3-(4-methylpiperazin-1-yl)benzyl)-1H-1,2,4-triazol-3-yl)-1,2,4-oxadiazole]: the negative-log IC50 (pIC50) was more than 7.00.
With `COCCCNc1nccc(Cn2nc(-c3nc(-c4ccc(OC(F)(F)F)cc4)no3)nc2C)n1` [Example 117, N-(3-methoxypropyl)-4-((5-methyl-3-(3-(4-(trifluoromethoxy)phenyl)-1,2,4-oxadiazol-5-yl)-1H-1,2,4-triazol-1-yl)methyl)pyrimidin-2-amine] the figure was 6.00 to 7.00; with `Cc1nc(-c2nc(-c3ccc(OC(F)(F)F)cc3)no2)nn1Cc1cccc(C(N)=O)c1` [Example 118, 3-((5-methyl-3-(3-(4-(trifluoromethoxy)phenyl)-1,2,4-oxadiazol-5-yl)-1H-1,2,4-triazol-1-yl)methyl)benzamide], more than 7.00.
Consider `Cc1nc(-c2nc(-c3ccc(OC(F)(F)F)cc3)no2)nn1Cc1cccc(C(=O)O)c1` [Example 119, 3-((5-methyl-3-(3-(4-(trifluoromethoxy)phenyl)-1,2,4-oxadiazol-5-yl)-1H-1,2,4-triazol-1-yl)methyl)benzoic acid], for which the pIC50 was 6.00 to 7.00.
Consider `CNC(=O)c1cccc(Cn2nc(-c3nc(-c4ccc(OC(F)(F)F)cc4)no3)nc2C)c1` [Example 120, N-methyl-3-[(5-methyl-3-{3-[4-(trifluoromethoxy)phenyl]-1,2,4-oxadiazol-5-yl}-1H-1 2 4-triazol-1-yl)methyl]benzamide], for which the pIC50 was more than 7.00.
As to `Cc1nc(-c2nc(-c3ccc(OC(F)(F)F)cc3)no2)nn1Cc1ccnc(N2CCCC2)n1` [Example 121, 4-[(5-methyl-3-{3-[4-(trifluoromethoxy)phenyl]-1,2,4-oxadiazol-5-yl}-1H-1,2,4-triazol-1-yl)methyl]-2-(pyrrolidin-1-yl)pyrimidine], the pIC50 was 6.00 to 7.00.
Turning to `Cc1nc(-c2nc(-c3ccc(OC(F)(F)F)cc3)no2)nn1Cc1cccc(C(=O)NC(C)C)c1` [Example 122, 3-[(5-methyl-3-{3-[4-(trifluoromethoxy)phenyl]-1,2,4-oxadiazol-5-yl}-1H-1,2,4-triazol-1-yl)methyl]-N-(propan-2-yl)benzamide], the pIC50 was more than 7.00.
For `Cc1nc(-c2nc(-c3ccc(OC(F)(F)F)cc3)no2)nn1Cc1cccc(C(=O)N2CC(O)C2)c1` [Example 123, 1-{3-[(5-methyl-3-{3-[4-(trifluoromethoxy)phenyl]-1,2,4-oxadiazol-5-yl}-1H-1,2,4-triazol-1-yl)methyl]benzoyl}azetidin-3-ol], the pIC50 is more than 7.00.
Consider `Cc1nc(-c2nc(-c3ccc(OC(F)(F)F)cc3)no2)nn1Cc1cccc(C(=O)NC2CC2)c1` [Example 124, N-cyclopropyl-3-[(5-methyl-3-{3-[4-(trifluoromethoxy]phenyl]-1,2,4-oxadiazol-5-yl}-1H-1,2,4-triazol-1-yl)methyl]benzamide], for which the pIC50 was more than 7.00.
On to `Cc1nc(-c2nc(-c3ccc(OC(F)(F)F)cc3)no2)nn1Cc1cccc(C(=O)NC(C)(C)CO)c1` [Example 125, N-(1-hydroxy-2-methylpropan-2-yl)-3-[(5-methyl-3-{3-[4-(trifluoromethoxy)phenyl]-1,2,4-oxadiazol-5-yl}-1H-1,2,4-triazol-1-yl)methyl]benzamide], for which the pIC50 was more than 7.00.
Under `Cc1nc(-c2nc(-c3ccc(OC(F)(F)F)cc3)no2)nn1Cc1cccc(OCCC(C)(C)O)c1` [Example 126, 2-methyl-4-{3-[(5-methyl-3-{3-[4-(trifluoromethoxy)phenyl]-1,2,4-oxadiazol-5-yl}-1H-1,2,4-triazol-1-yl)methyl]phenoxy}butan-2-ol] stands more than 7.00; under `Cc1nc(-c2nc(-c3ccc(OC(F)(F)F)cc3)no2)nn1Cc1ccc(S(C)(=O)=O)cc1` [Example 127, 5-{1-[(4-methanesulfonylphenyl)methyl]-5-methyl-1H-1,2,4-triazol-3-yl}-3-[4-(trifluoromethoxy)phenyl]-1,2,4-oxadiazole], 6.00 to 7.00.
With `Cc1nc(-c2nc(-c3ccc(OC(F)(F)F)cc3)no2)nn1Cc1ccc(=O)n(CCN(C)C)c1` [Example 128, 1-[2-(dimethylamino)ethyl]-5-[(5-methyl-3-{3-[4-(trifluoromethoxy)phenyl]-1,2,4-oxadiazol-5-yl}-1H-1,2,4-triazol-1-yl)methyl]-1,2-dihydropyridin-2-one] the figure was 6.00 to 7.00.
For `COCCCOc1ccc(Cn2nc(-c3nc(-c4ccc(OC(F)(F)F)cc4)no3)nc2C)cn1` [Example 129, 2-(3-methoxypropoxy)-5-[(5-methyl-3-{3-[4-(trifluoromethoxy)phenyl]-1,2,4-oxadiazol-5-yl}-1H-1,2,4-triazol-1-yl)methyl]pyridine], the pIC50 was 6.00 to 7.00.

For orientation: pIC50 means the IC50 on a negative log10 scale, so that one unit is a factor of ten.

These data come from US10208059B2, “Heterocyclic modulators of HIF activity for treatment of disease” (Board of Regents, University of Texas System, priority 2012, dated 2019).
